Experimental data published in US12077503B2, “Substituted cyclic amides and their use as herbicides” (FMC CORPORATION, priority 2015, dated 2024).
Read-outs that look alike come from different tables or passages of the source.

Legend:
Type in all cases: in vivo
[1] = system: Kochia (Kochia scoparia); experiment: Test A preemergence; settings: Bassia scoparia, pre-emergence, 240 h, read-out: Plant response rating, Kochia; for pest or weed control at 125 g/ha: 125 g ai/ha, preemergence, visual rating after approx. 10 d, 0 to 100 scale where 0 is no effect and 100 is complete control; for pest or weed control at 31 g/ha: Preemergence, 31 g ai/ha, 0 to 100 scale (0 no effect, 100 complete control)
Summary of the method: (§1)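 Preemergence directed soil spray on seeded pots, or postemergence application to plants 2–10 cm, one- to two-leaf. Solvent mixture non-phytotoxic, with surfactant. Scored ~10 d later, visually, 0–100 vs untreated.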

[2] = system: giant foxtail (Setaria faberii); experiment: Test A preemergence; settings: Setaria faberi, pre-emergence, 240 h, read-out: Plant response rating, Foxtail, Giant; for pest or weed control at 125 g/ha: 125 g ai/ha, preemergence, visual rating after approx. 10 d, 0 to 100 scale where 0 is no effect and 100 is complete control; for pest or weed control at 31 g/ha: Preemergence, 31 g ai/ha, 0 to 100 scale (0 no effect, 100 complete control)
Summary of the method: as §1

[3] = system: pigweed (Amaranthus retroflexus); experiment: Test A preemergence; settings: Amaranthus retroflexus, pre-emergence, 240 h, read-out: Plant response rating, Pigweed; for pest or weed control at 125 g/ha: 125 g ai/ha, preemergence, visual rating after approx. 10 d, 0 to 100 scale where 0 is no effect and 100 is complete control; for pest or weed control at 31 g/ha: Preemergence, 31 g ai/ha, 0 to 100 scale (0 no effect, 100 complete control)
[4] = system: ragweed (common ragweed, Ambrosia elatior); experiment: Test A preemergence; settings: Ambrosia artemisiifolia, pre-emergence, 240 h, read-out: Plant response rating, Ragweed; for pest or weed control at 125 g/ha: 125 g ai/ha, preemergence, visual rating after approx. 10 d, 0 to 100 scale where 0 is no effect and 100 is complete control; for pest or weed control at 31 g/ha: Preemergence, 31 g ai/ha, 0 to 100 scale (0 no effect, 100 complete control)
Summary of the method: as §1

[5] = system: ryegrass, Italian (Italian ryegrass, Lolium multiflorum); experiment: Test A preemergence; settings: Lolium multiflorum, pre-emergence, 240 h, read-out: Plant response rating, Ryegrass, Italian; for pest or weed control at 125 g/ha: 125 g ai/ha, preemergence, visual rating after approx. 10 d, 0 to 100 scale where 0 is no effect and 100 is complete control; for pest or weed control at 31 g/ha: Preemergence, 31 g ai/ha, 0 to 100 scale (0 no effect, 100 complete control)
Summary of the method: as §1

[6] = system: Galium (catchweed bedstraw, Galium aparine); experiment: Test A postemergence; settings: Galium, post-emergence, 240 h; for pest or weed control at 125 g/ha: 125 g ai/ha, postemergence; for pest or weed control at 31 g/ha: Postemergence, 31 g ai/ha, visual injury after approx. 10 d, 0 to 100 scale, 0 no effect, 100 complete control
Summary of the method: as §1

[7] = system: Kochia (Kochia scoparia); experiment: Test A postemergence; settings: Bassia scoparia, post-emergence, 240 h; for pest or weed control at 125 g/ha: 125 g ai/ha, postemergence; for pest or weed control at 31 g/ha: Postemergence, 31 g ai/ha, visual injury after approx. 10 d, 0 to 100 scale, 0 no effect, 100 complete control
Summary of the method: as §1

[8] = system: barnyardgrass (Echinochloa crus-galli); experiment: Test A postemergence; settings: Echinochloa crus-galli, post-emergence, 240 h; for pest or weed control at 125 g/ha: 125 g ai/ha, postemergence; for pest or weed control at 31 g/ha: Postemergence, 31 g ai/ha, visual injury after approx. 10 d, 0 to 100 scale, 0 no effect, 100 complete control
Summary of the method: as §1

[9] = system: blackgrass (Alopecurus myosuroides); experiment: Test A postemergence; settings: Alopecurus myosuroides, post-emergence, 240 h; for pest or weed control at 125 g/ha: 125 g ai/ha, postemergence; for pest or weed control at 31 g/ha: Postemergence, 31 g ai/ha, visual injury after approx. 10 d, 0 to 100 scale, 0 no effect, 100 complete control
Summary of the method: as §1

[10] = system: corn (Zea mays); experiment: Test A postemergence; settings: Zea mays, post-emergence, 240 h; for Corn plant response rating (crop injury, 0 = no effect, 100 = complete kill) at 31 g/ha: Postemergence, 31 g ai/ha, visual injury after approx. 10 d, 0 to 100 scale, 100 complete control
Summary of the method: as §1

[11] = system: giant foxtail (Setaria faberii); experiment: Test A postemergence; settings: Setaria faberi, post-emergence, 240 h; for pest or weed control at 125 g/ha: 125 g ai/ha, postemergence; for pest or weed control at 31 g/ha: Postemergence, 31 g ai/ha, visual injury after approx. 10 d, 0 to 100 scale, 0 no effect, 100 complete control
Summary of the method: as §1

[12] = system: pigweed (Amaranthus retroflexus); experiment: Test A postemergence; settings: Amaranthus retroflexus, post-emergence, 240 h; for pest or weed control at 125 g/ha: 125 g ai/ha, postemergence; for pest or weed control at 31 g/ha: Postemergence, 31 g ai/ha, visual injury after approx. 10 d, 0 to 100 scale, 0 no effect, 100 complete control
Summary of the method: as §1

[13] = system: ragweed (common ragweed, Ambrosia elatior); experiment: Test A postemergence; settings: Ambrosia artemisiifolia, post-emergence, 240 h; for pest or weed control at 125 g/ha: 125 g ai/ha, postemergence; for pest or weed control at 31 g/ha: Postemergence, 31 g ai/ha, visual injury after approx. 10 d, 0 to 100 scale, 0 no effect, 100 complete control
Summary of the method: as §1

[14] = system: ryegrass, Italian (Italian ryegrass, Lolium multiflorum); experiment: Test A postemergence; settings: Lolium multiflorum, post-emergence, 240 h; for pest or weed control at 125 g/ha: 125 g ai/ha, postemergence; for pest or weed control at 31 g/ha: Postemergence, 31 g ai/ha, visual injury after approx. 10 d, 0 to 100 scale, 0 no effect, 100 complete control
Summary of the method: as §1

[15] = system: wheat (Triticum aestivum); experiment: Test A postemergence; settings: Triticum aestivum, post-emergence, 240 h; for plant injury at 31 g/ha: Postemergence, 31 g ai/ha, visual injury after approx. 10 d, 0 to 100 scale, 0 no effect, 100 complete control, read-out: Plant response rating, Wheat
Summary of the method: as §1

[16] = read-out: Plant response rating, Galium
[17] = read-out: Plant response rating, Kochia
[18] = read-out: Plant response rating, Barnyardgrass
[19] = read-out: Plant response rating, Blackgrass
[20] = read-out: Plant response rating, Foxtail, Giant
[21] = read-out: Plant response rating, Pigweed
[22] = read-out: Plant response rating, Ragweed
[23] = read-out: Plant response rating, Ryegrass, Italian

Structure (SMILES): CSc1ccccc1NC(=O)[C@H]1C(=O)N(C)C[C@@H]1c1ccc(C(F)F)cc1 [Compound 799]
- pest or weed control at 125 g/ha [1]: 40%
- pest or weed control at 31 g/ha [1]: 0%
- pest or weed control at 125 g/ha [2]: 90%
- pest or weed control at 31 g/ha [2]: 70%
- pest or weed control at 125 g/ha [3]: 40%
- pest or weed control at 31 g/ha [3]: 30%
- pest or weed control at 125 g/ha [4]: 0%
- pest or weed control at 31 g/ha [4]: 0%
- pest or weed control at 125 g/ha [5]: 0%
- pest or weed control at 31 g/ha [5]: 0%
- pest or weed control at 125 g/ha ([6]; visual injury after approximately 10 d, 0 to 100 scale (0 no effect, 100 complete control), read-out: Plant response rating, Galium): 50%
- pest or weed control at 31 g/ha [6, 16]: 0%
- pest or weed control at 125 g/ha ([7]; visual injury after approximately 10 d, 0 to 100 scale (0 no effect, 100 complete control), read-out: Plant response rating, Kochia): 30%
- pest or weed control at 31 g/ha [7, 17]: 0%
- pest or weed control at 125 g/ha ([8]; visual injury after approximately 10 d, 0 to 100 scale (0 no effect, 100 complete control), read-out: Plant response rating, Barnyardgrass): 70%
- pest or weed control at 31 g/ha [8, 18]: 40%
- pest or weed control at 125 g/ha ([9]; visual injury after approximately 10 d, 0 to 100 scale (0 no effect, 100 complete control), read-out: Plant response rating, Blackgrass): 30%
- pest or weed control at 31 g/ha [9, 19]: 0%
- Corn plant response rating (crop injury, 0 = no effect, 100 = complete kill) at 125 g/ha ([10]; 125 g ai/ha, postemergence, visual injury after approximately 10 d, 0 to 100 scale (0 no effect, 100 complete control)): 20%
- Corn plant response rating (crop injury, 0 = no effect, 100 = complete kill) at 31 g/ha [10]: 0%
- pest or weed control at 125 g/ha ([11]; visual injury after approximately 10 d, 0 to 100 scale (0 no effect, 100 complete control), read-out: Plant response rating, Foxtail, Giant): 80%
- pest or weed control at 31 g/ha [11, 20]: 40%
- pest or weed control at 125 g/ha ([12]; visual injury after approximately 10 d, 0 to 100 scale (0 no effect, 100 complete control), read-out: Plant response rating, Pigweed): 20%
- pest or weed control at 31 g/ha [12, 21]: 0%
- pest or weed control at 125 g/ha ([13]; visual injury after approximately 10 d, 0 to 100 scale (0 no effect, 100 complete control), read-out: Plant response rating, Ragweed): 0%
- pest or weed control at 31 g/ha [13, 22]: 0%
- pest or weed control at 125 g/ha ([14]; visual injury after approximately 10 d, 0 to 100 scale (0 no effect, 100 complete control), read-out: Plant response rating, Ryegrass, Italian): 20%
- pest or weed control at 31 g/ha [14, 23]: 0%
- plant injury at 31 g/ha [15]: 0%

Structure (SMILES): CN1CC[C@H](c2cccc(OC(F)(F)F)c2)[C@@H](C(=O)Nc2cccc(Cl)c2F)C1=O [Compound 810]
- pest or weed control at 125 g/ha [1]: 0%
- pest or weed control at 31 g/ha [1]: 0%
- pest or weed control at 125 g/ha [2]: 90%
- pest or weed control at 31 g/ha [2]: 70%
- pest or weed control at 125 g/ha [3]: 0%
- pest or weed control at 31 g/ha [3]: 0%
- pest or weed control at 125 g/ha [4]: 0%
- pest or weed control at 31 g/ha [4]: 0%
- pest or weed control at 125 g/ha [5]: 20%
- pest or weed control at 31 g/ha [5]: 0%
- pest or weed control at 125 g/ha ([6]; visual injury rating after approximately 10 d, read-out: Galium plant response rating (0 to 100 scale, 0 no effect, 100 complete control)): 0%
- pest or weed control at 31 g/ha [6, 16]: 0%
- pest or weed control at 125 g/ha ([7]; visual injury rating after approximately 10 d, read-out: Kochia plant response rating (0 to 100 scale, 0 no effect, 100 complete control)): 0%
- pest or weed control at 31 g/ha [7, 17]: 0%
- pest or weed control at 125 g/ha ([8]; visual injury rating after approximately 10 d, read-out: Barnyardgrass plant response rating (0 to 100 scale, 0 no effect, 100 complete control)): 70%
- pest or weed control at 31 g/ha [8, 18]: 40%
- pest or weed control at 125 g/ha ([9]; visual injury rating after approximately 10 d, read-out: Blackgrass plant response rating (0 to 100 scale, 0 no effect, 100 complete control)): 0%
- pest or weed control at 31 g/ha [9, 19]: 0%
- plant injury at 125 g/ha ([10]; 125 g ai/ha, postemergence, visual injury rating after approximately 10 d, read-out: Corn plant response rating (0 to 100 scale, 0 no effect, 100 complete control)): 0%
- Corn plant response rating (crop injury, 0 = no effect, 100 = complete kill) at 31 g/ha [10]: 0%
- pest or weed control at 125 g/ha ([11]; visual injury rating after approximately 10 d, read-out: Foxtail, Giant plant response rating (0 to 100 scale, 0 no effect, 100 complete control)): 80%
- pest or weed control at 31 g/ha [11, 20]: 60%
- pest or weed control at 125 g/ha ([12]; visual injury rating after approximately 10 d, read-out: Pigweed plant response rating (0 to 100 scale, 0 no effect, 100 complete control)): 0%
- pest or weed control at 31 g/ha [12, 21]: 0%
- pest or weed control at 125 g/ha ([13]; visual injury rating after approximately 10 d, read-out: Ragweed plant response rating (0 to 100 scale, 0 no effect, 100 complete control)): 0%
- pest or weed control at 31 g/ha [13, 22]: 0%
- pest or weed control at 125 g/ha ([14]; visual injury rating after approximately 10 d, read-out: Ryegrass, Italian plant response rating (0 to 100 scale, 0 no effect, 100 complete control)): 0%
- pest or weed control at 31 g/ha [14, 23]: 0%
- plant injury at 125 g/ha ([15]; 125 g ai/ha, postemergence, visual injury rating after approximately 10 d, read-out: Wheat plant response rating (0 to 100 scale, 0 no effect, 100 complete control)): 0%
- plant injury at 31 g/ha [15]: 0%
